Patent publication US20220306623A1, “PYRIDYL OR PYRIMIDYL MTOR KINASE INHIBITORS” (GLAXOSMITHKLINE INTELLECTUAL PROPERTY DEVELOPMENT LIMITED, priority 2019, published 2022)

Assays:
[1] = biological target: T1, mTOR (Homo sapiens, UniProt P42345); test: mTOR kinobeads competition-binding assay; conditions: HuT-78 cell lysate, bead-immobilized capturing ligand, 2 h at 4° C., mean of multiple experiments; read-out: mean pIC50, mTOR kinobeads assay (converted)
T1 construct: capturing of endogenously expressed target proteins from cell extracts by a bead-immobilized capturing ligand; endogenous in cells; host or cells: HuT-78 cells (ECACC 88041901), cell lysate
Experimental: The affinity of test compounds for mTOR was determined in the mTOR kinobeads assay. This is a competition-binding assay based on the capturing of endogenously expressed target proteins from cell extracts by a bead-immobilized capturing ligand in the presence of the test compound.
HuT-78 cells (European Collection of Authenticated Cell Cultures, 88041901) were cultured according to vendor's instructions. Frozen cell pellets were homogenized in 3× pellet volumes lysis buffer (50 mM Tris-HCl, 0.4% (v/v) Igepal-CA630, 5% glycerol, 150 mM NaCl, 1.5 mM MgCl2, 25 mM NaF, 1 mM sodium vanadate, 1 mM DTT, pH 7.5, supplemented with EDTA-free protease inhibitor tablet (Roche)). The sample was dispersed using a Dounce homogenizer, kept rotating for 30 min at 4° C., and centrifuged for 10 min at 20000 gat 4° C. The supernatant was centrifuged again for 1 h at 145 000 g. The protein concentration was determined by Bradford assay (BioRad), aliquots were snap frozen in liquid nitrogen and stored at −80° C.
The capturing matrices were generated by derivatizing N-hydroxysuccinimide (NHS) activated Sepharose 4 beads (GE Healthcare) with the functionalized ligands Compound A and Compound C at a ligand density of 5 mM. Remaining NHS-groups were blocked with ethanolamine.
For the mTOR kinobeads assay the matrices were combined in a 1:1 ratio and equilibrated in DP buffer (50 mM Tris-HCl (pH 7.5), 0.4% (v/v) Igepal-CA630, 5% (v/v) glycerol, 150 mM NaCl, 1.5 mM MgCl2, 25 mM NaF, 1 mM Na3VO4, 1 mM dithiothreitol). All steps of the mTOR kinobeads assay were performed at 4° C. or on ice. The cell lysate was diluted with DP buffer to a final concentration of 5 mg/ml and a final detergent concentration of 0.4% (v/v) Igepal-CA630. For the assay 250 μg cell lysate and 2.5 μl capturing matrix per well (final assay volume: 75 μl) were incubated in the presence of test compounds in a 384-well filter plate (MultiScreenHTS HV Filter Plate, 0.45 μm, MZHVNOW50, Merck Millipore). Each plate contained 16 positive (100 μM Compound B) and 16 negative (2% v/v DMSO) control wells. Compounds were tested in a concentration-response applying 1:3 or 1:4 dilution steps for in total 11 data points. DMSO concentration was 2% (v/v). After 2 h incubation on an overhead shaker (Roto-Shake Genie, Scientific Industries Inc.) at 4° C. the non-bound fraction was removed by washing the beads with DP buffer. Proteins retained on the beads were eluted in SDS sample buffer (200 mM Tris (pH 7.4), 250 mM Trizma Base, 4% (w/v) SDS, 20% (v/v) glycerol, 0.01% (w/v) bromophenol blue, 50 mM dithiothreitol) into a collection plate (384 well polypropylene microplate, V-shape, Greiner, 781 280). Eluates were spotted on nitrocellulose membranes (400 nl per spot) using an automated pin-tool liquid transfer (Biomek FX, Beckman). After drying, the membranes were rehydrated in 20% (v/v) ethanol and blocked by incubation with Odyssey blocking buffer (LICOR, 927-40000) for 1 h at room temperature. Blocked membranes were incubated overnight at 25° C. with Odyssey blocking buffer supplemented with a specific anti-mTOR antibody (Cell Signaling, 2972; 1:500) and 0.4% TWEEN-20. Then the membranes were washed in PBST buffer and incubated for 60 minutes at room temperature with the detection antibody (IRDye™ labelled antibody from LI-COR) diluted in Odyssey blocking buffer (LICOR 927-40000) containing 0.2% TWEEN-20. Then the membranes were washed with PBST and finally rinsed twice with PBS buffer to remove residual Tween-20. The membranes were then scanned with the Odyssey® Infrared Imaging System (LI-COR Biosciences). Fluorescence signals were recorded and analyzed according to the instructions of the manufacturer. Concentration response curves were computed with the software Activity Base. All data were normalized to the mean of 16 high (negative control) and 16 low (positive control) control wells on each plate. […]

[2] = system: phosphorylated Akt at serine 473 (pAKTs473) in primary human lung fibroblasts; test: High throughput phosphorylated Akt (Ser473) in vitro immunoassay (MSD); assay type: cell-based; conditions: Fibroblast, primary human lung fibroblasts (Lonza), 384-well, compound 1 h, PDGF-BB 10 ng/ml 10 min, read-out: mean pIC50, pAKTser473 high throughput immunoassay (converted)
From the text: Immunoassay to measure effect of test compounds on phosphorylated Akt at serine 473 (pAKTs473) in primary human lung fibroblasts (Lonza Group Ltd, Basel, Switzerland, Catalogue No. CC-2512) using the MesoScale Discovery (MSD) platform to quantify levels of total Akt and pAKTser473.
Human lung fibroblasts were routinely maintained in fibroblast basal medium supplemented with 2% foetal bovine serum (FBS), 0.1% human fibroblast growth factor (FGF)-B, 0.1% insulin, 0.1% GA-100 (Lonza Group Ltd, Basel, Switzerland, Catalogue No. CC-3132) at 37° C. in 5% CO2 according to the manufacturer's protocol.
For the assay, cells were harvested using Trypsin/EDTA, (Lonza Group Ltd, Basel, Switzerland, Catalogue No. CC-5012), at working concentration of 0.025%, resuspended to give 3×10^5 cells/ml and 50 ul/well seeded into 384-well plates (Greiner Group, Kremsmunster, Austria, Catalogue No. 781091) in media containing 0.4% FBS and incubated o/n at 37° C. in 5% CO2.
Test compounds were dissolved in 100% DMSO to give 10 mM stock solutions and serially diluted to generate an 11-point concentration response curve. Compound were further diluted by […] into 384-well V-bottom polypropylene plates (Greiner Group, Kremsmunster, Austria, Catalogue No. 781280) with media containing 0.4% FBS to give 50 µM top compound concentration in 0.5% DMSO.
Compounds were transferred to 384-well plates contacting cells (0.1% DMSO final) and incubated for 1 h at 37° C. in 5% CO2, prior to stimulation with platelet-derived growth factor (PDGF)-BB (R&D Systems, Catalogue No. 220-BB) at 10 ng/ml (final) for 10 min at RT. Cell assay plates were incubated on ice and treated with lysis buffer (Cell Signalling Technology, Catalogue No. 9806) containing protease and phosphatase inhibitors (Thermo Scientific, Catalogue No. 78444) followed by shaking for 30 min at 4° C.
MSD plates (MSD, MA6000 384-well GAR plate, Catalogue No. L21RA-2) were blocked with blocking buffer containing TBS (MSD, Cat. No. R61TX-1) with 0.5% bovine serum albumin (BSA) (Sigma Aldrich, Cat. No. A7906), 0.1% tween-20 (Sigma Aldrich, Catalogue No. P2287) and coated with rabbit-anti-human pAkt (s473) ab (Cell Signalling Technology, Catalogue No. CST #4060) at RT with shaking, followed by washing (×3) with 1×TBS wash reagent containing 0.1% Tween-20. Cell lysates (30 ul) were added and MSD plates centrifuged at 1000 rpm at 4° C. o/n.
Plates were washed with 1×TBS wash buffer (×3), prior to addition of mouse-anti-human-total Akt ab (1 mg/ml) (Upstate (Milipore), Catalogue No. 05-591) in blocking buffer and shaken at RT for 1 h. After washing with 1×TBS wash buffer (×3), plates were incubated with goat-anti-mouse SULFO-TAG detection ab (MSD, Catalogue No. R32AC-1) (1:500 in blocking buffer) for 1 h at RT. Plates were washed with 1×TBS (×3) and read buffer (2×) (MSD, Catalogue No. R92TC-1) added before detecting electrochemiluminescence (MSD Sector Imager 6000).
Data analysis was performed by determining % inhibition values for test compounds relative to the minimum (+PDGF-BB stimulation) and maximum responses (no PDGF-BB stimulation) with non-linear regression analysis to determine IC50 values for test compounds.

[3] = system: type I collagen deposition in primary lung fibroblasts derived from human tissue; test: Type I collagen deposition (scar-in-a-jar) high content screening assay; assay type: cell-based; conditions: Primary lung fibroblast, 72 h, human pulmonary fibroblasts, 96-well, TGFβ-1 1 ng/ml 72 h, collagen intensity, read-out: mean pIC50, type I collagen deposition (scar-in-a-jar) (converted)
Experimental: Cellular type I collagen deposition was measured by adapting a published method; scar-in-a-jar (Chen et al., 2009) to primary lung fibroblasts derived from human tissue and combining with high content analysis to permit fluorescent quantification of collagen deposited in the extracellular matrix (ECM). The human biological samples were sourced ethically and their research use was in accord with the terms of the informed consents under an IRB/EC approved protocol. Human pulmonary fibroblasts were maintained in DMEM media (Gibco, Catalogue No 21969) supplemented with 4 mM L-glutamine (Gibco Catalogue No 25030-024) and 100/heat inactivated FBS (Gibco #10270-106, Lot #42F6663K) at 37° C. in 10%/CO2. Cells were harvested and seeded at 10,000 cells per well (85 μL/well) into black walled 96 well imaging plates (BD Falcon, 353219) in assay media (0.4%/heat inactivated FBS, 4 mM L-glutamine) and incubated overnight at 37° C., 10%/CO2.
Test compounds were dissolved in 1000/DMSO to give 10 mM stocks which were further diluted (serial 1:3) to generate 10 point concentration response curves. Assay media was supplemented with 112.5 mg/ml Ficoll 70 (Sigma, Catalogue No F2878), 75 mg/ml Ficoll 400 (Sigma, Catalogue No F4375) and 50 µg/ml ascorbic acid (Sigma, Catalogue No A8960). 3 μL compound were added to 297 μL assay media (10× compound final concentration in 1% DMSO).
Diluted compounds (15 μL) were transferred to plates containing cells and incubated for 3 h at 37° C. in 10% CO2. Transforming growth factor (TGF)β-1 (R&D Systems, Catalogue No 100-B/CF) was reconstituted according to manufacturer's instructions to give 10 µg/mL (stock) and further diluted (1 in 3333) in assay media containing Ficoll and ascorbic acid. 50 μL TGFβ-1 was added to cell plates (1 ng/ml final) and cells incubated for 72 h at 37° C. in 10% CO2.
Media was removed and cells were fixed with 50 µL/well 100% ice-cold methanol (2 min). Methanol was decanted and cells washed with PBS (3×). To permeabilise, cells were incubated with PBS containing 0.1% Triton X 100 for 90 sec, followed by PBS wash (3×). Cells were incubated with mouse anti human type I collagen monoclonal antibody (Sigma, Catalogue No C2456) diluted 1:1000 in PBS overnight at 4° C. Cells were washed with PBS containing 0.05% Tween-20 (3×) and incubated with secondary alexa fluor 488 goat-anti-mouse antibody (Invitrogen, Catalogue No A11001, 1 in 500 in PBS) and Hoechst 33342 (Sigma, Catalogue No H21492), 1 in 10000 in PBS) for 1 h at RT, prior to washing with PBS containing 0.05% Tween (×3) before finally adding 200 µL/well PBS.
Type I collagen immunoreactivity was detected using the Thermofisher CellInsight NXT set to excitation and emission wavelengths for DAPI and FITC with exposure adjusted to appropriate levels. Images were analysed using Cellomics Studio software (Version 6.6.0, build 8153) and computational algorithms to quantify “collagen intensity” and “cell count”.
Data analysis was performed by determining % response values for test compounds relative to the maximum (TGFβ-1 stimulation) fitting a ‘log(inhibitor) vs. response-Variable slope (four parameters)’ curve and recording pIC50 (inverse of Log IC50) values for test compounds.

CC[C@@H]1COCC(=O)N1c1cc(CS(C)(=O)=O)cc(-c2ccc3[nH]c(CNC)cc3n2)n1 [Example 34, (R)-5-ethyl-4-(6-(2-((methylamino)methyl)-1H-pyrrolo[3,2-b]pyridin-5-yl)-4-((methylsulfonyl)methyl)pyridin-2-yl)morpholin-3-one]
IC50 [1]: 1.26 µM
IC50 [2]: 7.94 µM

CC[C@H]1COCCN1c1cc(CS(=O)(=O)CC)nc(-c2ccc3[nH]c(CNC)cc3n2)n1 [Example 33, (S)-1-(5-(4-(3-ethylmorpholino)-6-((ethylsulfonyl)methyl)pyrimidin-2-yl)-1H-pyrrolo[3,2-b]pyridin-2-yl)-N-methylmethanamine]
IC50 [3]: < 3.98 µM

CC[C@H]1COCCN1c1cc(CS(=O)(=O)N(CC)CC)nc(-c2ccc3[nH]c(CNC)cc3n2)n1 [Example 30, (S)—N,N-diethyl-1-(6-(3-ethylmorpholino)-2-(2-((methylamino)methyl)-1H-pyrrolo[3,2-b]pyridin-5-yl)pyrimidin-4-yl)methanesulfonamide]
IC50 [3]: < 3.98 µM
